According to ChEMBL document CHEMBL1240530, “Inhalation by design: novel ultra-long-acting β(2)-adrenoreceptor agonists for inhaled once-daily treatment of asthma and chronic obstructive pulmonary disease that utilize a sulfonamide agonist headgroup” (J Med Chem, 2010):
One block for each molecule: values may come before it.

How the values were obtained:
Homo sapiens = species on record: Homo sapiens; assay: Selectivity ratio of EC50 for human recombinant beta-1 adrenergic receptor to EC50 for human recombinant beta2 adrenergic receptor
[1] = Distribution coefficient, log D of the compound; assay type: physicochemical; conditions: octanol/water
[2] = Bronchodilatory activity in Dunkin-Hartley guinea pig trachea assessed as time taken for electrical filed stimulation-induced constrictive response to recover by 50%; assay type: functional, Cavia porcellus
[3] = biological target: Beta-2 adrenergic receptor (Homo sapiens, UniProt P07550); assay: Agonist activity at human recombinant beta2 adrenergic receptor expressed in CHO cells assessed as elevation in cAMP level after 1 hr by flashplate method; assay type: functional, cell-based
Sequence of Beta-2 adrenergic receptor (P07550 whole entry): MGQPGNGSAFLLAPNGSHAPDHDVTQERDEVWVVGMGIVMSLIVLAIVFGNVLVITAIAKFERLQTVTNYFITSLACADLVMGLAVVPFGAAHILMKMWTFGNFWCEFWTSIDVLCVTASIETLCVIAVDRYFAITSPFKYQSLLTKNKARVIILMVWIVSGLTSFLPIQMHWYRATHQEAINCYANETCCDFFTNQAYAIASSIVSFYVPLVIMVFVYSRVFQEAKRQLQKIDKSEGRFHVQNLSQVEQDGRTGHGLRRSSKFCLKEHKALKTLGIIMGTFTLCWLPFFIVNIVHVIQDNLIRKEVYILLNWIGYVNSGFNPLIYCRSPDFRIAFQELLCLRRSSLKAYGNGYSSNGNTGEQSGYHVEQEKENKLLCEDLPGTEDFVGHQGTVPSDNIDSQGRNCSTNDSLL

Oryctolagus cuniculus = species on record: Oryctolagus cuniculus; assay: Toxicity in rabbit Adelta-fibre firing model assessed as induction of postinhalation cough at 50 to 1000 ug, it; assay type: organism-based; conditions: in vivo, inhaled_or_intranasal
in vivo = conditions: beagle, dog, inhaled or intranasal
Description: Therapeutic index, ratio of dose inducing cardiovascular side effects to ED50 for inhibition of acetylcholine-induced bronchoconstriction in itr dosed Beagle dog

Canis familiaris [4] = species on record: Canis familiaris
Description: Bronchodilatory activity in itr dosed Beagle dog assessed as inhibition of acetylcholine-induced bronchoconstriction administered 5 doses of compound at cumulative 1 hr intervals

Liver microsomes [5] = assay: Intrinsic clearance in human liver microsome; assay type: ADME
Canis familiaris [6] = assay: Bronchodilatory activity in itr dosed Beagle dog assessed as duration of blockade of acetylcholine-induced bronchoconstriction at ED50 administered as single dose prior to acetylcholine challenge
[7] = Cmax in rat at 100 ug, it; assay type: ADME, organism-based; set-up: dose 100 ug; conditions: in vivo, inhaled or intranasal
[8] = Volume of distribution in iv dosed rat; assay type: ADME, organism-based; conditions: in vivo
[9] = Oral bioavailability in rat; assay type: ADME, organism-based; conditions: in vivo
[10] = Half life in iv dosed rat; assay type: ADME, organism-based; conditions: in vivo
Liver [11] = assay: Intrinsic clearance in rat liver; assay type: ADME, Microsome; conditions: microsomes
[12] = Apparent permeability from apical to basolateral side of human Caco-2 cells; assay type: ADME, cell-based
[13] = Apparent permeability from basolateral to apical side of human Caco-2 cells; assay type: ADME, cell-based
[14] = Tmax in rat at 100 ug, it; assay type: ADME, organism-based; conditions: in vivo, inhaled or intranasal
[15] = biological target: Voltage-gated inwardly rectifying potassium channel KCNH2 (Homo sapiens, UniProt Q12809); assay: Inhibition of human ERG by patch clamp technique
Sequence of Voltage-gated inwardly rectifying potassium channel KCNH2 (Q12809 whole entry): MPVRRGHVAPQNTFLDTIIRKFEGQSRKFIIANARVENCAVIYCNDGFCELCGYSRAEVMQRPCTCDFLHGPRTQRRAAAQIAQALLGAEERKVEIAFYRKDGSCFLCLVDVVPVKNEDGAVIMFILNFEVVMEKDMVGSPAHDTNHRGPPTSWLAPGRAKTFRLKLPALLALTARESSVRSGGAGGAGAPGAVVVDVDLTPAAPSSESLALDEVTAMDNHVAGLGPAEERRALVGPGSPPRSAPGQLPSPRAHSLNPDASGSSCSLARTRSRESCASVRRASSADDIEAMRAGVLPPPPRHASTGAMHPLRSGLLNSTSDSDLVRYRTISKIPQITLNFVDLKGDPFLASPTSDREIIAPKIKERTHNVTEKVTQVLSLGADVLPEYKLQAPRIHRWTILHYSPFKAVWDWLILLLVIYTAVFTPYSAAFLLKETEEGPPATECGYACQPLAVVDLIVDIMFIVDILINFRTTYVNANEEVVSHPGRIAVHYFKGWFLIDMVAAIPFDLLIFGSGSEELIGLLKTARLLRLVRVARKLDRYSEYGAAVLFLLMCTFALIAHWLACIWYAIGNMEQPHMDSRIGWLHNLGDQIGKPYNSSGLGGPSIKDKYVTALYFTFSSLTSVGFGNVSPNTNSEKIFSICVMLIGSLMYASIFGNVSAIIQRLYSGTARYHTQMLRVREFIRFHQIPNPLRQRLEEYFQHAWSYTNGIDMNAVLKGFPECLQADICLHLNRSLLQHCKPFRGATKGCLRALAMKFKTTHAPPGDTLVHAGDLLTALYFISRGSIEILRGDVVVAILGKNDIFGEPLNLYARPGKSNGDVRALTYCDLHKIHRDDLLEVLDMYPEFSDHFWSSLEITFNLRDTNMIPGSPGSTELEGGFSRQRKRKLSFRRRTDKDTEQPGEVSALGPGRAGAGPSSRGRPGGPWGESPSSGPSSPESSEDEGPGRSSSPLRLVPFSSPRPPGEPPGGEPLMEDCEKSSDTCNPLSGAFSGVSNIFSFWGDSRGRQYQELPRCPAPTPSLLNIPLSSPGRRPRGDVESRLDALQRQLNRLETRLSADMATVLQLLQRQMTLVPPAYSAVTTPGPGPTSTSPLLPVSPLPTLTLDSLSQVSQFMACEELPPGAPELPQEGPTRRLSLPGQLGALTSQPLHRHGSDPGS

Liver microsomes [16] = assay: Intrinsic clearance in human liver microsome in presence of CYP3A4 inhibitor ketoconazole; assay type: ADME
Canis familiaris [17] = assay: Bronchodilatory activity in itr dosed Beagle dog assessed as duration of blockade of acetylcholine-induced bronchoconstriction at 10 times ED50 administered as single dose prior to acetylcholine challenge
[18] = Metabolic stability in rat bile assessed as compound remaining; assay type: ADME, tissue-based
[19] = Total clearance in iv dosed rat; assay type: ADME, organism-based; conditions: in vivo
[20] = Plasma protein binding in iv dosed rat; assay type: ADME, organism-based; conditions: read-out: PPB (converted)
Canis familiaris [21] = assay: Cardiotoxicity in itr dosed Beagle dog assessed as induction of trachycardia after 7.5 hrs; assay type: toxicity, organism-based, Canis lupus familiaris; conditions: in vivo, inhaled_or_intranasal
Liver [22] = assay: Unbound intrinsic clearance in rat liver; assay type: ADME, Microsome; conditions: microsomes
Liver microsomes [23] = assay: Metabolic stability in human liver microsome; assay type: ADME
[24] = Dissociation constant, pKa of the compound; assay type: physicochemical
Canis familiaris [25] = assay: Cardiotoxicity in itr dosed Beagle dog assessed as increase in heart rate after 7.5 hrs; assay type: toxicity, organism-based, Canis lupus familiaris; conditions: in vivo, inhaled_or_intranasal

Structure (SMILES): CCN(Cc1ccc(O)cc1Cl)C(=O)Cc1cccc(CC(C)(C)NC[C@H](O)c2ccc(O)c(NS(C)(=O)=O)c2)c1
Ratio EC50 (Homo sapiens): 210
logD [1]: 1.6
Time [2]: 8.49 h
EC50 [3]: 0.37 nM

Structure (SMILES): CC(C)(Cc1ccccc1)NCC(O)c1ccc(O)c(NS(C)(=O)=O)c1 (stereo not given) [ZINTEROL]
logD [1]: 0.6
Time [2]: 3.4 h

Structure (SMILES): CC(C)(Cc1cccc(CC(=O)NCc2cccc(-c3ccc(O)cc3)c2)c1)NC[C@H](O)c1ccc(O)c(NS(C)(=O)=O)c1 [PF-00610355]
Activity (Oryctolagus cuniculus): Non-toxic
selectivity ratio (in vivo): ≥ 10
ED50 (Canis familiaris [4]): 0.1 µg
CL (Liver microsomes [5]): 0.054 mL/min/kg
Ratio EC50 (Homo sapiens): 220
Time (Canis familiaris [6]): >8 h
Cmax [7]: 1.3 nM
Vd [8]: 31 L/kg
logD [1]: 1.9
bioavailability [9]: < 5%
half-life [10]: 3.5 h
CL (Liver [11]): 0.033 mL/min/kg
Time [2]: 6.23 h
Papp A→B [12]: < 1 ×10⁻⁶ cm/s
Papp B→A [13]: 13 ×10⁻⁶ cm/s
Tmax [14]: 0.5 h
IC50 [15]: > 10000 nM
CL (Liver microsomes [16]): < 0.01 mL/min/kg
Time (Canis familiaris [17]): >8 h
Stability [18]: 6%
clearance [19]: 103 mL/min/kg
fraction unbound [20]: 0.05
Activity (Canis familiaris [21]): Non-toxic
CL free (Liver [22]): > 10000 mL/min/kg
Stability (Liver microsomes [23]): 80%

Structure (SMILES): CC(C)(Cc1cccc(CC(=O)NCc2cc(Cl)ccc2O)c1)NC[C@H](O)c1ccc(O)c(NS(C)(=O)=O)c1
Ratio EC50 (Homo sapiens): 7000
logD [1]: 1.6
Time [2]: 6 h
pKa [24]: 9.22
EC50 [3]: 0.17 nM

Structure (SMILES): CC(C)(Cc1cccc(CC(=O)NCc2ccc(-c3ccc(O)cc3)cc2)c1)NC[C@H](O)c1ccc(O)c(NS(C)(=O)=O)c1
Ratio EC50 (Homo sapiens): 1300
Time [2]: 6.57 h

Structure (SMILES): CC(C)(Cc1cccc(CC(=O)NCc2cc(Cl)c(O)c(Cl)c2)c1)NC[C@H](O)c1ccc(O)c(NS(C)(=O)=O)c1
Ratio EC50 (Homo sapiens): 1600
logD [1]: 0.8
Time [2]: 3.66 h
pKa [24]: 6.69
EC50 [3]: 0.091 nM

Structure (SMILES): C[C@H](Cc1cccc(CC(=O)NCc2ccc(Cl)c(Cl)c2)c1)NC[C@H](O)c1ccc(O)c(CO)c1
Ratio EC50 (Homo sapiens): 5300
Time [2]: 9 h

Structure (SMILES): COc1cccc(OC)c1CNC(=O)c1cc2cc(C[C@@H](C)NC[C@H](O)c3ccc(O)c(CO)c3)ccc2[nH]1
selectivity ratio (in vivo): 10
ED50 (Canis familiaris [4]): 1 µg
Time (Canis familiaris [6]): >8 h
Time (Canis familiaris [17]): >8 h

Structure (SMILES): CC(C)(Cc1cccc(CC(=O)NCc2cc(Cl)cc(Cl)c2O)c1)NC[C@H](O)c1ccc(O)c(NS(C)(=O)=O)c1
Ratio EC50 (Homo sapiens): 560
logD [1]: 2
Time [2]: 8.02 h
EC50 [3]: 0.13 nM

Structure (SMILES): OCc1cc(C(O)CNCCCCCCOCCCCc2ccccc2)ccc1O (stereo not given) [SALMETEROL]
ED50 (Canis familiaris [4]): 1 µg
Time (Canis familiaris [6]): 4 h
Time [2]: 6.97 h
Activity (Canis familiaris [25]): Toxic
Time (Canis familiaris [17]): <7 h

Structure (SMILES): CC(C)(Cc1cccc(CC(=O)NCc2ccc3cc(O)ccc3c2)c1)NC[C@H](O)c1ccc(O)c(NS(C)(=O)=O)c1
Ratio EC50 (Homo sapiens): 730
logD [1]: 1.3
Time [2]: 6.17 h
EC50 [3]: 0.21 nM

The next lines start with results.

Ratio EC50 (Homo sapiens): 7500
EC50 [3]: 0.023 nM
Structure (SMILES): CC(C)(Cc1cccc(CC(=O)NCc2ccccc2)c1)NC[C@H](O)c1ccc(O)c(NS(C)(=O)=O)c1

Ratio EC50 (Homo sapiens): 1700
logD [1]: 2.4
EC50 [3]: 0.066 nM
Structure (SMILES): CC(C)(Cc1cccc(CC(=O)NCc2ccc(Cl)c(Cl)c2)c1)NC[C@H](O)c1ccc(O)c(NS(C)(=O)=O)c1
Time [2]: 8.34 h

Ratio EC50 (Homo sapiens): 3300
logD [1]: 1.6
EC50 [3]: 0.048 nM
Structure (SMILES): CCOc1ccccc1CNC(=O)Cc1cccc(C[C@@H](C)NC[C@H](O)c2ccc(O)c(NS(C)(=O)=O)c2)c1
Time [2]: 6.2 h

Ratio EC50 (Homo sapiens): 7300
logD [1]: 1.2
EC50 [3]: 0.02 nM
Structure (SMILES): CC(C)(Cc1cccc(CC(=O)NCc2ccc(O)cc2Cl)c1)NC[C@H](O)c1ccc(O)c(NS(C)(=O)=O)c1
Time [2]: 6.8 h

Ratio EC50 (Homo sapiens): 3100
EC50 [3]: 0.032 nM
Structure (SMILES): C[C@H](Cc1cccc(CC(=O)NCC2CCCCC2)c1)NC[C@H](O)c1ccc(O)c(NS(C)(=O)=O)c1
Time [2]: 5.79 h

Ratio EC50 (Homo sapiens): 1300
EC50 [3]: 0.064 nM
Structure (SMILES): C[C@H](Cc1cccc(CC(=O)NC23CC4CC(CC(C4)C2)C3)c1)NC[C@H](O)c1ccc(O)c(CO)c1
Time [2]: 6.35 h

Ratio EC50 (Homo sapiens): 3700
logD [1]: 1.1
pKa [24]: 9.93
EC50 [3]: 0.045 nM
Structure (SMILES): Cc1cc(O)cc(C)c1CNC(=O)Cc1cccc(CC(C)(C)NC[C@H](O)c2ccc(O)c(NS(C)(=O)=O)c2)c1
Time [2]: 4.59 h

Ratio EC50 (Homo sapiens): 3400
logD [1]: 1.7
EC50 [3]: 0.042 nM
Structure (SMILES): C[C@H](Cc1cccc(CC(=O)NCCCc2ccccc2)c1)NC[C@H](O)c1ccc(O)c(NS(C)(=O)=O)c1
Time [2]: 5.85 h

Ratio EC50 (Homo sapiens): 16000
logD [1]: 1
EC50 [3]: 0.027 nM
Structure (SMILES): C[C@H](Cc1cccc(CC(=O)NCc2ccccc2)c1)NC[C@H](O)c1ccc(O)c(NS(C)(=O)=O)c1
Time [2]: 3.24 h

Ratio EC50 (Homo sapiens): 5600
logD [1]: 1.2
EC50 [3]: 0.04 nM
Structure (SMILES): COc1ccccc1CNC(=O)Cc1cccc(C[C@@H](C)NC[C@H](O)c2ccc(O)c(NS(C)(=O)=O)c2)c1
Time [2]: 4.22 h

Ratio EC50 (Homo sapiens): 3700
logD [1]: 2
EC50 [3]: 0.056 nM
Structure (SMILES): Cc1ccc(CNC(=O)Cc2cccc(C[C@@H](C)NC[C@H](O)c3ccc(O)c(NS(C)(=O)=O)c3)c2)cc1C
Time [2]: 6.74 h

Ratio EC50 (Homo sapiens): 1800
EC50 [3]: 0.04 nM
Structure (SMILES): C[C@H](Cc1cccc(CC(=O)NCCc2ccccc2)c1)NC[C@H](O)c1ccc(O)c(NS(C)(=O)=O)c1
